# In ChEMBL document CHEMBL3885881, “DrugMatrix”:
# Species: Rattus norvegicus
# Assay: DrugMatrix - Regimen: Daily Repeat
# Type: toxicity, organism-based, Sprague-Dawley
# Design: regimen Daily Repeat, gender Male, age 6-8 weeks
# Conditions: in vivo, po, route oral GAVAGE, vehicle 100 % WATER; for ABSOLUTE BASOPHIL / ABSOLUTE EOSINOPHIL / ABSOLUTE LYMPHOCYTE / ABSOLUTE MONOCYTE / ABSOLUTE SEGMENTED NEUTROPHIL / BASOPHIL / EOSINOPHIL / ERYTHROCYTE COUNT / HEMATOCRIT / HEMOGLOBIN / LEUKOCYTE COUNT / LYMPHOCYTE / MEAN CORPUSCULAR HEMOGLOBIN / MEAN CORPUSCULAR HEMOGLOBIN CONCENTRATION / MEAN CORPUSCULAR VOLUME / MONOCYTE / NEUTROPHIL / NUCLEATED RED BLOOD CELLS / PLATELET COUNT: tissue Blood; for ALANINE AMINOTRANSFERASE / ALBUMIN / ALKALINE PHOSPHATASE / ASPARTATE AMINOTRANSFERASE / BLOOD UREA NITROGEN / CARBON DIOXIDE / CHLORIDE / CHOLESTEROL / CREATINE PHOSPHOKINASE / CREATININE / GLUCOSE / LACTATE DEHYDROGENASE / LIPASE / PHOSPHORUS / POTASSIUM / SODIUM / TOTAL BILIRUBIN / TOTAL PROTEIN / URIC ACID: tissue Plasma
# [1] = 25 mg/kg, 120 h, dose level High, time 5 day
# [2] = […], 72 h, dose 6.3 mg/Kg, dose level Low, time 3 day
# [3] = […], 120 h, dose 6.3 mg/Kg, dose level Low, time 5 day
smiles,measurement,setting,value
O=P1(N(CCCl)CCCl)NCCCO1 (centres undefined) [CYCLOPHOSPHAMIDE ANHYDROUS],ABSOLUTE BASOPHIL,[1],0 CELLS/uL
same,ABSOLUTE EOSINOPHIL,[1],0 CELLS/uL
same,ABSOLUTE LYMPHOCYTE,[1],1111.67 CELLS/uL
same,ABSOLUTE MONOCYTE,[1],4.33 CELLS/uL
same,ABSOLUTE SEGMENTED NEUTROPHIL,[1],117.33 CELLS/uL
same,BASOPHIL,[1],0%
same,EOSINOPHIL,[1],0%
same,ERYTHROCYTE COUNT,[1],4.84 x10E6/uL
same,HEMATOCRIT,[1],29.43%
same,HEMOGLOBIN,[1],11.47 G/DL
same,LEUKOCYTE COUNT,[1],1.23 x10E3/uL
same,LYMPHOCYTE,[1],90.33%
same,MEAN CORPUSCULAR HEMOGLOBIN,[1],23.77 pg
same,MEAN CORPUSCULAR HEMOGLOBIN CONCENTRATION,[1],39 G/DL
same,MEAN CORPUSCULAR VOLUME,[1],60.93 fL
same,MONOCYTE,[1],0.33%
same,NEUTROPHIL,[1],9.33%
same,NUCLEATED RED BLOOD CELLS,[1],0 /100WBC
same,PLATELET COUNT,[1],645 x10E3/uL
same,ALANINE AMINOTRANSFERASE,[1],44.33 u/L
same,ALBUMIN,[1],3.8 G/DL
same,ALKALINE PHOSPHATASE,[1],227.67 u/L
same,ASPARTATE AMINOTRANSFERASE,[1],67.33 u/L
same,BLOOD UREA NITROGEN,[1],15.33 mg/dL
same,CARBON DIOXIDE,[1],31 mmol/L
same,CHLORIDE,[1],102.33 MEQ/L
same,CHOLESTEROL,[1],78.67 mg/dL
same,CREATINE PHOSPHOKINASE,[1],231 u/L
same,CREATININE,[1],0.16 mg/dL
same,GLUCOSE,[1],147.67 mg/dL
same,LACTATE DEHYDROGENASE,[1],83.33 u/L
same,LIPASE,[1],8.33 u/L
same,PHOSPHORUS,[1],9.97 mg/dL
same,POTASSIUM,[1],5.36 MEQ/L
same,SODIUM,[1],144.37 MEQ/L
same,TOTAL BILIRUBIN,[1],0.1 mg/dL
same,TOTAL PROTEIN,[1],5.37 G/DL
same,URIC ACID,[1],0.33 mg/dL
same,ABSOLUTE BASOPHIL,[2],0 CELLS/uL
same,ABSOLUTE EOSINOPHIL,[2],0 CELLS/uL
same,ABSOLUTE LYMPHOCYTE,[2],7172.67 CELLS/uL
same,ABSOLUTE MONOCYTE,[2],29.33 CELLS/uL
same,ABSOLUTE SEGMENTED NEUTROPHIL,[2],531.33 CELLS/uL
same,BASOPHIL,[2],0%
same,EOSINOPHIL,[2],0%
same,ERYTHROCYTE COUNT,[2],5.43 x10E6/uL
same,HEMATOCRIT,[2],33.63%
same,HEMOGLOBIN,[2],13.3 G/DL
same,LEUKOCYTE COUNT,[2],7.73 x10E3/uL
same,LYMPHOCYTE,[2],92.67%
same,MEAN CORPUSCULAR HEMOGLOBIN,[2],24.53 pg
same,MEAN CORPUSCULAR HEMOGLOBIN CONCENTRATION,[2],39.53 G/DL
same,MEAN CORPUSCULAR VOLUME,[2],62.03 fL
same,MONOCYTE,[2],0.33%
same,NEUTROPHIL,[2],7%
same,NUCLEATED RED BLOOD CELLS,[2],0 /100WBC
same,PLATELET COUNT,[2],1008 x10E3/uL
same,ALANINE AMINOTRANSFERASE,[2],63.67 u/L
same,ALBUMIN,[2],4.1 G/DL
same,ALKALINE PHOSPHATASE,[2],374 u/L
same,ASPARTATE AMINOTRANSFERASE,[2],82.67 u/L
same,BLOOD UREA NITROGEN,[2],14 mg/dL
same,CARBON DIOXIDE,[2],34.33 mmol/L
same,CHLORIDE,[2],99.5 MEQ/L
same,CHOLESTEROL,[2],93.33 mg/dL
same,CREATINE PHOSPHOKINASE,[2],214.67 u/L
same,CREATININE,[2],0.13 mg/dL
same,GLUCOSE,[2],141.67 mg/dL
same,LACTATE DEHYDROGENASE,[2],136 u/L
same,LIPASE,[2],12.67 u/L
same,PHOSPHORUS,[2],11.2 mg/dL
same,POTASSIUM,[2],5.83 MEQ/L
same,SODIUM,[2],145.15 MEQ/L
same,TOTAL BILIRUBIN,[2],0.23 mg/dL
same,TOTAL PROTEIN,[2],5.9 G/DL
same,URIC ACID,[2],0.6 mg/dL
same,ABSOLUTE BASOPHIL,[3],0 CELLS/uL
same,ABSOLUTE EOSINOPHIL,[3],11 CELLS/uL
same,ABSOLUTE LYMPHOCYTE,[3],3359 CELLS/uL
same,ABSOLUTE MONOCYTE,[3],20 CELLS/uL
same,ABSOLUTE SEGMENTED NEUTROPHIL,[3],610 CELLS/uL
same,BASOPHIL,[3],0%
same,EOSINOPHIL,[3],0.33%
same,ERYTHROCYTE COUNT,[3],5.53 x10E6/uL
same,HEMATOCRIT,[3],34.97%
same,HEMOGLOBIN,[3],13.43 G/DL
same,LEUKOCYTE COUNT,[3],4 x10E3/uL
same,LYMPHOCYTE,[3],84%
same,MEAN CORPUSCULAR HEMOGLOBIN,[3],24.37 pg
same,MEAN CORPUSCULAR HEMOGLOBIN CONCENTRATION,[3],38.43 G/DL
same,MEAN CORPUSCULAR VOLUME,[3],63.33 fL
same,MONOCYTE,[3],0.67%
same,NEUTROPHIL,[3],15%
same,NUCLEATED RED BLOOD CELLS,[3],0 /100WBC
same,PLATELET COUNT,[3],1266.67 x10E3/uL
same,ALANINE AMINOTRANSFERASE,[3],56.33 u/L
same,ALBUMIN,[3],4.03 G/DL
same,ALKALINE PHOSPHATASE,[3],346.33 u/L
same,ASPARTATE AMINOTRANSFERASE,[3],83.33 u/L
same,BLOOD UREA NITROGEN,[3],14 mg/dL
same,CARBON DIOXIDE,[3],31.33 mmol/L
same,CHLORIDE,[3],99.5 MEQ/L
same,CHOLESTEROL,[3],65.67 mg/dL
same,CREATINE PHOSPHOKINASE,[3],216.33 u/L
same,CREATININE,[3],0.2 mg/dL
same,GLUCOSE,[3],137.33 mg/dL
same,LACTATE DEHYDROGENASE,[3],136 u/L
same,LIPASE,[3],10.33 u/L
same,PHOSPHORUS,[3],10.6 mg/dL
same,POTASSIUM,[3],5.74 MEQ/L
same,SODIUM,[3],145.9 MEQ/L
same,TOTAL BILIRUBIN,[3],0.17 mg/dL
same,TOTAL PROTEIN,[3],5.9 G/DL
same,URIC ACID,[3],0.53 mg/dL
